Consider 23 compounds from PubChem BioAssay (NCI).

Among the test systems are MDA-MB-231 breast; BT-549 breast; MCF7 breast; MDA-N.
Common to all, as to assay: DTP human tumour cell line panel, 48 h

Molecules are shown by their SMILES.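 All cell lines were grown in 96-well plates and treated with compound for 48 hours. Here, GI50 denotes the concentration required for 50% inhibition of growth. Definition used: TGI = concentration required for complete inhibition of growth.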

One may read the TGI as the concentration at which net growth stops. Read a low TGI as more potent growth arrest. Take `N=c1ccn2c(n1)OC1C(OP(=O)(O)O)C(CO)OC12` (configuration not stated): the total growth inhibition concentration (TGI) with MDA-MB-231 breast, in the assay with BT-549 breast, in the assay on MCF7 breast and with MDA-N was more than 100 µM throughout.
On to `O=c1[nH]cnc2c(C3OC(CO)C(O)C3O)[nH]nc12` (configuration not stated), for which the TGI with MDA-MB-231 breast, in the assay on BT-549 breast, with MCF7 breast and in the assay with MDA-N was more than 100 µM in each case.
The GI50 is the concentration giving 50% growth inhibition. As to `COc1cc2c(c(OC)c1OC)-c1ccc([O-])c(=O)cc1[C@@H](NC(C)=O)CC2.COc1cc2c(c(OC)c1OC)-c1ccc([O-])c(=O)cc1[C@@H](NC(C)=O)CC2.[Cu+2]`, the GI50 is 3840 nM in the assay on MDA-MB-231 breast, 2560 nM in the assay on BT-549 breast and 3330 nM in the assay on MCF7 breast. Moreover, the TGI in the assay with MDA-MB-231 breast, with BT-549 breast and with MCF7 breast was more than 100 µM in each case.
As to `Nc1nc(N)c2nc(CNc3ccc(C(=O)CC(CCC(=O)O)C(=O)O)cc3)cnc2n1` (configuration not stated), the GI50 with MDA-MB-231 breast was more than 100000 nM; with BT-549 breast, 357 nM; in the assay with MCF7 breast, 71.4 nM. Further, the TGI in the assay on MDA-MB-231 breast and in the assay with MCF7 breast was more than 100 µM throughout.
On to `Cc1cc(N(CCOS(C)(=O)=O)CCOS(C)(=O)=O)ccc1C=Nc1ccc(-c2csc(-c3ccccc3)n2)c(Cl)c1`, for which the TGI was 50.9 µM in the assay with MDA-MB-231 breast, 73.6 µM with BT-549 breast, more than 58.9 µM with MCF7 breast and 23.1 µM with MDA-N.
Regarding `CN1CCN(C(=O)c2ccc(NC(=O)Nc3ccc(N(C)c4ccnc(Nc5ccc(CS(C)(=O)=O)cc5)n4)cc3)cc2)CC1`, the GI50 in the assay with MDA-MB-231 breast was more than 23800 nM; with BT-549 breast, 9050 nM; with MCF7 breast, 7410 nM. For the same compound, the concentration for total growth inhibition (TGI) with MDA-MB-231 breast, with BT-549 breast and in the assay on MCF7 breast was more than 25 µM throughout.
Regarding `NCCCNc1ccc2c(c1)[n+]([O-])c1ccccc1[n+]2[O-]`, the total growth inhibition concentration (TGI) in the assay with MDA-MB-231 breast was 57.6 µM; in the assay on BT-549 breast, 64 µM; in the assay with MCF7 breast, more than 100 µM.
Turning to `COc1cc2[nH]c(C(=O)c3cc(OC)c(OC)c(OC)c3)c(N)c2cc1C#CCO`, in the assay on MDA-MB-231 breast, the GI50 is 629 nM and the TGI is more than 100 µM. Besides, in the assay with MCF7 breast, the GI50 was 88.6 nM and the concentration for total growth inhibition (TGI) was more than 100 µM.
As to `Nc1ccccc1NC(=O)c1ccc(CSc2nc(N3CCOCC3)c3cccn3n2)cc1`, the GI50 is 806 nM in the assay with MDA-MB-231 breast, 1140 nM in the assay with BT-549 breast and 335 nM in the assay with MCF7 breast. Further, the TGI with MDA-MB-231 breast is 11.7 µM; with BT-549 breast, 4.59 µM; with MCF7 breast, more than 100 µM.
`COc1ccc(NC(=O)C(=O)C(CC2C(=O)NC(=S)NC2=O)C(=O)c2ccc3ccccc3c2)c([N+](=O)[O-])c1` (configuration not stated): the concentration for total growth inhibition (TGI) in the assay with MDA-MB-231 breast, in the assay with BT-549 breast, with MCF7 breast and in the assay on MDA-N was more than 100 µM each time.
With `O=S(=O)(NCCNc1cc(-c2cn(-c3ccccc3)nc2-c2cccc(O)c2)ccn1)c1ccc(C(F)(F)F)cc1`, the GI50 with MDA-MB-231 breast is 2120 nM; in the assay with BT-549 breast, 2020 nM; with MCF7 breast it was 2290 nM. Moreover, the values for the total growth inhibition concentration (TGI) with MDA-MB-231 breast, in the assay on BT-549 breast and with MCF7 breast were 4.72 µM, 7.07 µM and 9.78 µM, respectively.
Take `CC[C@H](C)c1occ2c(O)c(C(=O)O)c(=O)cc-2c1C`: the concentration for total growth inhibition (TGI) in the assay on MDA-MB-231 breast was 50.6 µM; in the assay with BT-549 breast, 64.6 µM; in the assay with MCF7 breast, more than 100 µM; with MDA-N it was more than 100 µM.
In the case of `CCCCCCN(CCCCCC)C(=N)c1ccnc2ccccc12`, the GI50 is 5130 nM with MDA-MB-231 breast, 13900 nM in the assay on BT-549 breast and 2130 nM in the assay with MCF7 breast. Also, the TGI is 21.3 µM with MDA-MB-231 breast, 27.3 µM in the assay on BT-549 breast and 5.53 µM in the assay with MCF7 breast.
Take `COc1cccc(-c2nn(-c3ccccc3)cc2-c2ccnc(NCCNS(=O)(=O)c3ccc(C(F)(F)F)cc3)c2)c1`: the GI50 with MDA-MB-231 breast was 3150 nM; with BT-549 breast, 1950 nM; with MCF7 breast, 3150 nM. For the same compound, the TGI in the assay with MDA-MB-231 breast was more than 100 µM; in the assay on BT-549 breast, 4.56 µM; with MCF7 breast, 39.1 µM.
Turning to `CON(C)C(=O)C(Cc1ccccc1)NC(=O)OC(C)(C)C` (configuration not stated), the concentration for total growth inhibition (TGI) in the assay on BT-549 breast, in the assay on MCF7 breast and in the assay on MDA-N was more than 100 µM throughout.
Take `COc1ccc(C(=S)c2cc(OC)c(OC)c(OC)c2)cc1OC(=O)CCl`: the results for the GI50 in the assay with MDA-MB-231 breast, in the assay on BT-549 breast and in the assay with MCF7 breast were 25.3 nM, less than 17.5 nM and less than 15.6 nM, respectively. The concentration for total growth inhibition (TGI) in the assay on BT-549 breast was 0.922 µM; with MCF7 breast it was 43.5 µM.
On to `CCN(Cc1ccc(F)cc1)c1ccc(CO)c(Cl)c1`, for which the GI50 was 15600 nM in the assay on MDA-MB-231 breast, 9270 nM in the assay with BT-549 breast and 155 nM in the assay with MCF7 breast. For the same compound, the total growth inhibition concentration (TGI) in the assay with MDA-MB-231 breast turned out to be 51.5 µM; in the assay with BT-549 breast, 29.7 µM; in the assay with MCF7 breast it was 7.05 µM.
As to `COc1cc(N2CCC(N3CCN(C)CC3)CC2)ccc1Nc1ncc(Cl)c(Nc2ccccc2P(C)(C)=O)n1`, the GI50 in the assay with MDA-MB-231 breast was 625 nM; in the assay with BT-549 breast, 3070 nM; in the assay with MCF7 breast it was 414 nM. Also, the values for the TGI in the assay with MDA-MB-231 breast, with BT-549 breast and in the assay with MCF7 breast were 31.7 µM, 13.5 µM and more than 100 µM, respectively.
As for `[N-]=[N+]=NC1(N=[N+]=[N-])C(=O)NN=C(c2ccccc2)C1=O` (configuration not stated), the total growth inhibition concentration (TGI) was more than 100 µM in the assay with MDA-MB-231 breast, more than 100 µM in the assay on BT-549 breast, more than 100 µM in the assay on MCF7 breast and 61.3 µM in the assay on MDA-N.
As for `CCCCCCCC1c2cc3[nH]c(cc4nc(cc5[nH]c(cc(n2)[C@@]1(C)CC(=O)N(C)C)c(C)c5CCC(=O)O)C(CCC(=O)O)=C4C)cc3C` (some centres not stated), the concentration for total growth inhibition (TGI) in the assay with MDA-MB-231 breast was 33.7 µM; in the assay with BT-549 breast, 28.6 µM; in the assay on MCF7 breast it was 92.3 µM; in the assay on MDA-N, more than 100 µM.
For the compound `O=C1CN(c2cccc(C(F)(F)F)c2)C(=O)CN1NCNN1CC(=O)N(c2cccc(C(F)(F)F)c2)CC1=O`, the concentration for total growth inhibition (TGI) in the assay on MDA-MB-231 breast, in the assay with MCF7 breast and in the assay on MDA-N was more than 100 µM each time.
On to `C=C1C(=O)O[C@@H]2[C@H]1CC[C@H](C)[C@]1(O)CCC(=O)[C@@]21C`, for which the concentration for total growth inhibition (TGI) in the assay on MCF7 breast and in the assay on MDA-N was more than 10 µM each time.
In the case of `O=C1C(=O)c2cc([N+](=O)[O-])ccc2-c2ccccc21`, the figures for the GI50 with MDA-MB-231 breast, in the assay on BT-549 breast and with MCF7 breast were 1640 nM, 1830 nM and 1820 nM, respectively. Besides, the TGI in the assay with MDA-MB-231 breast was 3.15 µM; with BT-549 breast, 3.22 µM; in the assay with MCF7 breast it was 3.64 µM.
